The target in one data set is T1, Adh6 (Saccharomyces cerevisiae, UniProt Q04894).
T1 construct: endogenous in cells; host or cells: S. cerevisiae cells; five-step chromatographic purification from crude extract
T1 sequence (Q04894 1-360): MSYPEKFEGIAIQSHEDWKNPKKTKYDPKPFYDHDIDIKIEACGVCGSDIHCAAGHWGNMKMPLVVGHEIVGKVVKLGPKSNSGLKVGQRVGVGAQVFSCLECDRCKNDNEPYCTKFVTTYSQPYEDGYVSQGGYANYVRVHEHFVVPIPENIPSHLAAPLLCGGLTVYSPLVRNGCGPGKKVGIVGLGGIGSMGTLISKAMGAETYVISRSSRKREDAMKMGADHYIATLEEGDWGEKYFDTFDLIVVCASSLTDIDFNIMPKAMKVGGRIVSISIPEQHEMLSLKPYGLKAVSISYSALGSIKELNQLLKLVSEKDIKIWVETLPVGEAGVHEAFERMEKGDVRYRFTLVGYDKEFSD
Briefly: Kinetic analysis and substrate specificity of SNO-CoA reductase activity of purified Adh6. It counts as biochemical, yeast (S. cerevisiae). The conditions noted are these: purified Adh6 20 nM, NADPH 100 μM, substrate 100 μM (FIG. 2D). On the procedure: (§1) Kinetic analysis was carried out with purified Adh6 and AKR1A1. The reactions contained a fixed concentration of NADPH (100 μM) and several concentrations of SNO-CoA.
(§2) Kinetic analysis was carried out employing assay conditions as above. For Km determination, reactions (4-5 replicates) were performed with a fixed amount of purified Adh6, 100 μM NADPH and SNO-CoA concentrations of 16-375 μM. Initial rates were calculated from the absorbance decrease at 340 nm using a combined extinction coefficient of 7.06 mM^−1 cm^−1 for SNO and NADPH. The kcat was determined at saturating substrate concentrations.

Data set [1] deals with T2, Erg10 (acetoacetyl-CoA thiolase) (Saccharomyces cerevisiae, UniProt P41338).
T2 construct: Erg10 activity was assayed in extracts of WT yeast in the presence or absence of SNO-CoA; endogenous in cells; host or cells: wild-type S. cerevisiae lysate/extract
Put plainly: Assay for acetoacetyl-CoA thiolase (Erg10) activity. It counts as biochemical, yeast (S. cerevisiae). As to conditions: for Effect on Erg10 thiolase activity: yeast extracts and purified protein (FIG. 4D, E). On the procedure:
Acetoacetyl-CoA thiolase activity was assayed in the physiological forward direction (2 acetyl-CoA→acetoactyl-CoA+CoA-SH) by following the formation of CoA-SH with 5,5′-dithiobis(2-nitrobenzoic acid) (DTNB) at 412 nm, as outlined recently for assay of HMG-CoA synthase activity. This approach avoids background absorbance in lysates and interference from added SNO-CoA in the reverse-reaction assay of acetoacetyl-CoA consumption at 300 nm (acetoacetyl-CoA+CoA-SH→2 acetyl-CoA). The assay was performed in 20 mM tris pH 8.0, containing 0.1 mM EDTA and 0.1 mM DTPA. The reaction mixture (1 ml) contained yeast lysate and 100 μM acetyl-CoA. Reaction without the addition of acetyl-CoA was used as background control. In some experiments, various concentrations of GSNO or SNO-CoA were also added. The reaction was monitored following the addition of 0.5 mM DTNB for 3 min at 412 nm. Thiolase activity was determined using rates between 1 and 3 minutes.

Data set [2] relates to lysates of wild-type (WT) yeast. Briefly: SNO-RAC/LC-MS/MS identification of SNO-proteins in treated yeast lysates. The data set is classed as biochemical, yeast (S. cerevisiae). The conditions noted are these: lysates treated with 60 μM for 10 min. As to the method: For analysis in yeast, cells were grown to absorbance 600 nm=1.0 and lysed by bead beating in lysis buffer (20 mM bis-tris propane, pH 7.0, 50 mM NaCl, 100 mM EDTA, 100 μM DTPA, 1 mM PMSF and protease inhibitor cocktail (Roche)). The lysate was centrifuged at 20,000 g for 10 min and the supernatant was adjusted to 1 mg/ml protein and retained for analysis. For analysis of SNO-proteins by mercury-coupled-photolysis-chemiluminescence, samples were processed as previously described. For SNO-RAC, some samples (1 mg/ml) were left untreated or treated for 10 min with 60 μM SNO-CoA±100 μM NADPH. The reaction was stopped by adding 3 volumes of ice-cold acetone, followed by precipitation at −20° C. for 20 min. […] Eluates were analyzed by SDS-PAGE followed by Western blotting for erg10 (see below) or, for mass spectrometric analysis, individual lanes were excised from the gel and subjected to trypsin digest prior to processing for LC/MS-MS (see below). […]
Prior to analysis by LC-MS/MS, samples were passed through a C18 spin column (Thermo Pierce, Rockford, Ill.) and reconstituted in 0.1% formic acid. […] For peptide identification and quantification using iTRAQ reporter ions, MS analysis was performed using a hybrid linear ion trap Orbitrap Velos mass spectrometer (LTQ-Orbitrap Velos, Thermo, Waltham, Mass.). […]

Substrate in data set [3]: CC(C)(COP(=O)(O)OP(=O)(O)OC[C@H]1O[C@@H](n2cnc3c(N)ncnc32)[C@H](O)[C@@H]1OP(=O)(O)O)[C@@H](O)C(=O)NCCC(=O)NCCSN=O
Briefly: Kinetic analysis of SNO-CoA reductase activity of purified AKR1A1. The data set is classed as biochemical, bovine. The conditions noted are these: other: purified AKR1A1, 100 μM NADPH; pH 7.0. As to the method: as §1
Kinetic analyses were carried out in 50 mM phosphate buffer, pH 7.0, containing 100 μM EDTA and DTPA. For Km determination, reactions (2-4 replicates) were performed with a fixed amount of purified AKR1A1, 100 μM NADPH and 2-500 μM SNO-CoA. Initial rates were calculated from the absorbance decrease at 340 nm. The kcat was determined at saturating substrate concentrations.

Substrate in data set [4]: CC(C)(COP(=O)(O)OP(=O)(O)OC[C@H]1O[C@@H](n2cnc3c(N)ncnc32)[C@H](O)[C@@H]1OP(=O)(O)O)[C@@H](O)C(=O)NCCC(=O)NCCSN=O
Briefly: Kinetic analysis and substrate specificity of SNO-CoA reductase activity of purified Adh6. It counts as biochemical, yeast (S. cerevisiae). The conditions noted are these: other: purified Adh6, 100 μM NADPH. As to the method:
as §1, §2

6 molecules from US11351155B2, “Compositions and methods of modulating s-nitrosylation” (CASE WESTERN RESERVE UNIVERSITY, priority 2014, dated 2022) can be followed below.

T2 sequence (P41338 whole entry): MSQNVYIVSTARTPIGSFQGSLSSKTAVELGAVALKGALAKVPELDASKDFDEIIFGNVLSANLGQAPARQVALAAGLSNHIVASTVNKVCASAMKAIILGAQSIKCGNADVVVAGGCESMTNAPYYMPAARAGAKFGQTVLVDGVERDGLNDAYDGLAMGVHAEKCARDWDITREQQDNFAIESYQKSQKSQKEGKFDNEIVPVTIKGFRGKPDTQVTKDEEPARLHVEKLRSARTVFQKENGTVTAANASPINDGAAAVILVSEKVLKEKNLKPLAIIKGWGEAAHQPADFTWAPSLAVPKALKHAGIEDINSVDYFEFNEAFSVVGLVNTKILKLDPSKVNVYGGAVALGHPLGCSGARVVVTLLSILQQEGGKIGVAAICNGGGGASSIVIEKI

With `N[C@@H](CCC(=O)N[C@@H](CSN=O)C(=O)NCC(=O)O)C(=O)O` [GSNO, S-nitrosoglutathione], on Adh6, the “Metabolism by Adh6 (NADPH consumption)” value is “specific for SNO-CoA versus GSNO”. Further, the “Effect on Erg10 thiolase activity” value in data set [1] is “neither GSNO (FIG. 4D) nor succinyl-CoA (a CoA analogue) (FIG. 4E) had a significant effect”.

`CC(C)(COP(=O)(O)OP(=O)(O)OC[C@H]1O[C@@H](n2cnc3c(N)ncnc32)[C@H](O)[C@@H]1OP(=O)(O)O)[C@@H](O)C(=O)NCCC(=O)NCCSC(=O)CCC(=O)O` [succinyl-CoA]: the “Effect on Erg10 thiolase activity” value in data set [1] is “neither GSNO (FIG. 4D) nor succinyl-CoA (a CoA analogue) (FIG. 4E) had a significant effect”. Turning to `N[C@@H](CSN=O)C(=O)O` [CysNO, S-nitroso-cysteine], the “Metabolism by Adh6 (NADPH consumption)” value at Adh6 is “does not metabolize”. For the molecule `CC(C)(COP(=O)(O)OP(=O)(O)OC[C@H]1O[C@@H](n2cnc3c(N)ncnc32)[C@H](O)[C@@H]1OP(=O)(O)O)[C@@H](O)C(=O)NCCC(=O)NCCSN=O` [SNO-CoA, S-nitroso-CoA], the “Number of SNO-proteins identified” value in data set [2] was determined as 345. Further, the 50% inhibitory concentration (IC50) – broadly, the midpoint of a concentration-inhibition curve – in data set [1] (purified protein, read-out: IC50 for inhibition of Erg10 thiolase activity) is 4 µM. Moreover, the “Effect on Erg10 thiolase activity” value in data set [1] is reported as “potently inhibited”.

B1: AKR1A1 (Bos taurus) (protein)
chain: MAASCILLHTGQKMPLIGLGTWKSDPGQVKAAIKYALSVGYRHIDCAAIYGNETEIGEALKENVGPGKLVPREELFVTSKLWNTKHHPEDVEPALRKTLADLQLEYLDLYLMHWPYAFERGDSPFPKNADGTIRYDSTHYKETWRALEALVAKGLVRALGLSNFNSRQIDDVLSVASVRPAVLQVECHPYLAQNELIAHCQARNLEVTAYSPLGSSDRAWRDPEEPVLLKEPVVLALAEKHGRSPAQILLRWQVQRKVSCIPKSVTPSRILENIQVFDFTFSPEEMKQLDALNKNLRFIVPMLTVDGKRVPRDAGHPLYPFNDPY
notes: Bovine kidney tissue (˜50 g) was suspended in 100 ml of lysis buffer; tissue Rockland Immunochemicals Inc. (tissue supplier); host or cells: bovine kidney
With B1, in data set [3], the Km (as a rule, the substrate concentration at which the rate is half of its maximum) amounted to 20.5 ± 1.8 µM; the kcat (as a rule, the number of substrate molecules converted per active site and unit of time at saturation) turned out to be 10.4 ± 0.396 s⁻¹.

B2: Adh6 (Saccharomyces cerevisiae S288C) (protein)
chain: T1 sequence (Q04894 1-360)
notes: endogenous in cells; host or cells: S. cerevisiae cells; five-step chromatographic purification from crude extract
B2: in data set [4], the Km stood at 180.5 ± 16.8 µM and the kcat was 43.275 ± 1.845 s⁻¹.
